Experimental data taken from the NIST ThermoML archive (doi:10.1021/je8007217).

Assays:
[1] = xn = mol fraction of the nth substance listed; conditions: 298.15 K, 101 kPa, Liquid; for viscosity: Capillary tube (Ostwald / Ubbelohde) method; for mass density: Pycnometric method
[2] = 298.15 K, 101 kPa, Liquid; for viscosity: Capillary tube (Ostwald / Ubbelohde) method; for mass density: Pycnometric method

COC(C)=O [methyl ethanoate] + C1CCCCC1
[1]
Conditions | mass density [kg/m3] | viscosity [mPa·s]
x2 = 0 | 926.8 | 0.38
x2 = 0.0891 | 903.7 | 0.381
x2 = 0.1804 | 883.3 | 0.383
x2 = 0.2739 | 864.7 | 0.388
x2 = 0.3698 | 848.5 | 0.407
x2 = 0.4681 | 833.1 | 0.437
x2 = 0.569 | 819.4 | 0.477
x2 = 0.6725 | 806.4 | 0.535
x2 = 0.7788 | 794.9 | 0.603
x2 = 0.8879 | 784.2 | 0.708

CCOC(C)=O [ethyl acetate] + O=C1CCCCC1
[1], x2 = 0
Conditions | mass density [kg/m3] | viscosity [mPa·s]
– | 894.5 | 0.426

O=C1CCCCC1 [cyclohexanone] + C1CCCCC1
[1]
Conditions | mass density [kg/m3] | viscosity [mPa·s]
x2 = 0 | 941.6 | 2.02
x2 = 0.1147 | 921.8 | 1.813
x2 = 0.2257 | 903 | 1.638
x2 = 0.3332 | 884.8 | 1.475
x2 = 0.4374 | 867.1 | 1.335
x2 = 0.5384 | 849.6 | 1.225
x2 = 0.6363 | 832.5 | 1.126
x2 = 0.7313 | 816 | 1.038
x2 = 0.8235 | 800 | 0.965
x2 = 0.913 | 785.9 | 0.921

O=C1CCCCC1 [cyclohexanone] + CCOC(C)=O
[1]
Conditions | mass density [kg/m3] | viscosity [mPa·s]
x1 = 0.0907 | 898.3 | 0.47
x1 = 0.1833 | 902.6 | 0.521
x1 = 0.2778 | 907.3 | 0.585
x1 = 0.3744 | 912.3 | 0.667
x1 = 0.473 | 917.5 | 0.764
x1 = 0.5738 | 922.6 | 0.892
x1 = 0.6769 | 927.6 | 1.058
x1 = 0.7822 | 932.6 | 1.289
x1 = 0.8899 | 937.3 | 1.604
x1 = 1 | 941.6 | 2.02

O=C1CCCCC1 [cyclohexanone] + COC(C)=O
[1]
Conditions | mass density [kg/m3] | viscosity [mPa·s]
x1 = 0.0774 | 927.4 | 0.407
x1 = 0.1587 | 928.5 | 0.445
x1 = 0.2444 | 929.9 | 0.504
x1 = 0.3347 | 931.3 | 0.577
x1 = 0.4301 | 932.9 | 0.666
x1 = 0.531 | 934.6 | 0.779
x1 = 0.6378 | 936.4 | 0.936
x1 = 0.7512 | 938.2 | 1.163
x1 = 0.8717 | 940.2 | 1.488
x1 = 1 | 941.6 | 2.02

C1CCCCC1 [cyclohexane] + O=C1CCCCC1
[1], x1 = 1
Conditions | mass density [kg/m3] | viscosity [mPa·s]
– | 773.8 | 0.892

CCOC(C)=O [ethyl acetate]
[2]
Conditions | mass density [kg/m3] | viscosity [mPa·s]
– | 894.5 | 0.426

C1CCCCC1 [cyclohexane] + CCCOC(C)=O
[1], x1 = 1
Conditions | mass density [kg/m3] | viscosity [mPa·s]
– | 773.8 | 0.892

CCCOC(C)=O [propyl ethanoate] + O=C1CCCCC1
[1], x2 = 0
Conditions | mass density [kg/m3] | viscosity [mPa·s]
– | 883 | 0.551

C1CCCCC1 [cyclohexane]
[2]
Conditions | mass density [kg/m3] | viscosity [mPa·s]
– | 773.8 | 0.892

CCCOC(C)=O [propyl ethanoate]
[2]
Conditions | mass density [kg/m3] | viscosity [mPa·s]
– | 883 | 0.551

COC(C)=O [methyl ethanoate] + O=C1CCCCC1
[1], x2 = 0
Conditions | mass density [kg/m3] | viscosity [mPa·s]
– | 926.8 | 0.38

C1CCCCC1 [cyclohexane] + COC(C)=O
[1], x1 = 1
Conditions | mass density [kg/m3] | viscosity [mPa·s]
– | 773.8 | 0.892

C1CCCCC1 [cyclohexane] + CCOC(C)=O
[1], x1 = 1
Conditions | mass density [kg/m3] | viscosity [mPa·s]
– | 773.8 | 0.892

O=C1CCCCC1 [cyclohexanone]
[2]
Conditions | mass density [kg/m3] | viscosity [mPa·s]
– | 941.6 | 2.02

COC(C)=O [methyl ethanoate]
[2]
Conditions | mass density [kg/m3] | viscosity [mPa·s]
– | 926.8 | 0.38

CCCOC(C)=O [propyl ethanoate] + C1CCCCC1
[1]
Conditions | mass density [kg/m3] | viscosity [mPa·s]
x2 = 0 | 883 | 0.551
x2 = 0.1188 | 868.5 | 0.54
x2 = 0.2328 | 854.7 | 0.548
x2 = 0.3421 | 841.8 | 0.554
x2 = 0.4472 | 829.9 | 0.572
x2 = 0.5482 | 819.3 | 0.587
x2 = 0.6454 | 809.3 | 0.625
x2 = 0.739 | 800 | 0.663
x2 = 0.8292 | 791.1 | 0.715
x2 = 0.9161 | 782.3 | 0.786

CCOC(C)=O [ethyl acetate] + C1CCCCC1
[1]
Conditions | mass density [kg/m3] | viscosity [mPa·s]
x2 = 0 | 894.5 | 0.426
x2 = 0.1042 | 877 | 0.432
x2 = 0.2074 | 861.2 | 0.436
x2 = 0.3097 | 847 | 0.441
x2 = 0.4111 | 833.9 | 0.462
x2 = 0.5115 | 822.1 | 0.493
x2 = 0.611 | 811.2 | 0.533
x2 = 0.7095 | 801.2 | 0.585
x2 = 0.8072 | 791.8 | 0.653
x2 = 0.904 | 782.7 | 0.749

O=C1CCCCC1 [cyclohexanone] + CCCOC(C)=O
[1]
Conditions | mass density [kg/m3] | viscosity [mPa·s]
x1 = 0.1036 | 888.2 | 0.609
x1 = 0.2064 | 894.2 | 0.666
x1 = 0.3084 | 900.4 | 0.731
x1 = 0.4096 | 906.5 | 0.821
x1 = 0.5099 | 912.4 | 0.926
x1 = 0.6095 | 918.4 | 1.049
x1 = 0.7083 | 924.3 | 1.199
x1 = 0.8063 | 930.2 | 1.407
x1 = 0.9035 | 936.1 | 1.685
x1 = 1 | 941.6 | 2.02
